According to patent US5972894A, “Peptides having potassium channel opener activity” (Cytran, Inc., priority 1997, dated 1999):
“And” between values parts separate entries of the source, which are not always exact repeats. Equal values may be shown once. Residues, ends and D or L forms follow the SMILES beside them.

How the values were obtained:
ischemic myocardium = assay: Inotropic function and arrhythmias of ischemic isolated rat heart during reperfusion; conditions: 0.06-6.0 mg/l
From the text: Rat hearts were surgically isolated from white random-bred rats weighing approximately 250 g. The isolated hearts were perfused with a standard oxygenated (95% O2 and 5% CO2) Krebs-Henseleit solution in a retrograde manner (i.e., according to Langendorff and using a constant perfusate pressure of 80 cm of water). The hearts maintained a steady spontaneous contraction rate. A latex balloon catheter connected to a pressure transducer (EMT-746, Siemens-Elema, Sweden) was inserted into the left ventricle of each heart to measure the inotropic function of the heart (as described in Example 3, above). The left ventricle pressure variation curve was recorded using a polygraph.
Stage I ("adaptation regimen") consisted of a 30-minute adaptation of the respective rat hearts to the perfusion regimen. The baseline parameters for the inotropic function of each heart were recorded to establish the preischemic values for the following measured parameters: (i) the systolic pressure in the left ventricle (Psyst. mm Hg); (ii) the diastolic pressure in the left ventricle (Pdiast. mm Hg); (iii) the evolving pressure (Pev. =Psyst. -Pdist. mm Hg); (iv) the maximal rate of increase of left ventricle pressure (+dp/dtmax mm Hg/sec); and (v) the maximal rate of decrease of left ventricle pressure (-dp/dtmax mm Hg/sec). In addition, the heart rate (HR) of each heart was determined from the recordings made of the variations in the left ventricle pressure over time. In Stage II ("ischemic simulation"), ischemia was induced in each heart by shutting off the supply of the perfusion solution to the heart. Approximately 30 minutes later, Stage III ("reperfusion regimen") was initiated by restarting the reperfusion and including in the perfusate solution a test or control substance at one of the following respective concentrations: a perfusate solution of a test substance comprised 0.06, 0.6, or 6.0 mg/l GE, or 0.06, 0.6, or 6.0 mg/l VT, respectively; a perfusate solution of the positive control substance comprised 14 mg/l inosine. Inosine is a nucleoside preparation that produces a favorable inotropic effect on both normal and ischemic myocardium while inducing no rhythm disturbances or acceleration of ischemic contracture development. Woollard et al., Cardiovasc. Res. 15: 659-67 (1981). Inosine was obtained from Sigma Chemical Company, USA (Cat. Code I-4125; lot number 81H0227). The negative control substance comprised reperfusion using a standard oxygenated Krebs-Henseleit solution.
For each heart, the inotropic function of the myocardium was evaluated by measuring the parameters (i) through (v), discussed above, and the heart rate. These six parameters were recorded continuously throughout the study (i.e., beginning with Stage I and continuing through Stage III). The recordings were analyzed at the following times: (a) immediately before beginning Stage II (that is, after the 30-minute Stage I adaptation period, but before stopping perfusion); and (b) at 1, 5, 10, 20, and 30 minutes into the Stage III reperfusion.
The frequency and duration of rhythm disturbances in the 30-minute Stage III reperfusion period were determined by measuring the following parameters: (i) the number of ventricular extrasystoles; (ii) the overall duration of ventricular tachycardias (in seconds); and (iii) the overall duration of ventricular fibrillation (in seconds). Each dose of the test substance was tested on nine isolated hearts.

rats = assay: ECG parameters of cardiac function in Nembutal-anesthetized rats
Procedure: White random-bred male rats weighing about 200 g were anesthetized using Nembutal. A basal ECG was taken as soon as possible following anesthetization to establish basal measurements for the principal parameters of cardiac functions. Rats showing any deviation from normal ECG parameters were excluded from the study.
Each dose of each test substance was evaluated on a separate experimental group consisting of 10 rats. ECG traces (no less than 4 complexes each) were taken at 1, 3, 5, and 10 minutes after the injection of the test substance. Physiological saline served as the negative control substance. To each animal in the negative control group, 2 ml of physiological saline was injected intravenously.
Cardiac function was evaluated by monitoring the following ECG parameters:
(iv) the duration of the QT interval (which defines the time from the beginning of the QRS complex to the end of the T wave and reflects the duration of ventricular depolarization and repolarization). The normal value for this parameter for Nembutal-anesthetized rats is 50 to 106 ms using lead II ECG.

Intestinal Smooth Muscle = assay: Calcium-induced contraction of intestinal smooth muscle specimens; type: cell-based, guinea pigs; conditions: 20 mM CaCl2
Procedure: GE and VT served as test substances in this experiment. GE was tested at concentrations of 10^-6 g/ml and 10^-5 g/ml (4.9×10^-6 M and 4.9×10^-5 M, respectively), and VT was tested at concentrations 10^-6 g/ml and 10^-5 g/ml (4.58×10^-6 and 4.58×10^-5 M, respectively).
Small intestinal SMS samples from ten guinea pigs were surgically isolated and prepared as follows. First, the SMS samples were preincubated for 40 minutes in an organ bath holding a standard Krebs-Henseleit physiological salt solution containing calcium chloride (CaCl2) at concentration of 2.5 mM. Next, each SMS was washed with a calcium-free solution of Krebs-Henseleit and incubated in a calcium-free Krebs-Henseleit solution for 40 minutes. Contractile activity was pre-induced in each SMS by first perfusing the organ bath containing the sample for 15 minutes with a Krebs-Henseleit solution containing 30 mM KCl and then perfusing the bath for an additional 15 minutes with a Krebs-Henseleit solution containing 20 mM CaCl2. Finally, each SMS sample was washed with a calcium-free Krebs-Henseleit solution for 40 minutes. In these experiments, measurements of the contractile response of the SMS following the addition of a Krebs-Henseleit solution containing 20 mM calcium served as the control (baseline). Changes in contraction amplitudes were recorded by using the method set forth in Step 1 of Example 2, above.
After washing the SMS as outlined in Step 1, the organ bath with the SMS sample was perfused for 15 minutes with the solution of a test or reference substance. In this instance, GE and VT served as the test substances, and each dipeptide was tested at a concentration of 10^-6 g/ml.
Following perfusion with the test or reference substance, the SMS sample/organ bath was perfused for 10 minutes with a Krebs-Henseleit solution containing 30 mM KCl and then perfused for an additional 10 minutes with a Krebs-Henseleit solution containing 20 mM CaCl2. Next, each SMS sample was washed with a calcium-free Krebs-Henseleit solution for 40 minutes. The effect of the test or reference substance on the SMS sample was evaluated by measuring the contractile response (i.e., the change in contraction amplitude) of the sample following the addition of the Krebs-Henseleit solution containing 20 mM CaCl2.
Next, the organ bath was perfused for 10 minutes with a Krebs-Henseleit solution containing 30 mM KCl and then for additional 10 minutes with a Krebs-Henseleit solution containing 20 mM CaCl2. The effect of the respective test or reference substance was evaluated a second time by measuring the change in the contraction amplitude of the SMS following the addition of the Krebs-Henseleit solution containing 20 mM CaCl2. […]

[1] = test system: Smooth Muscle Cells of Rat Portal Vein; assay: Spontaneous contractile activity of rat portal vein smooth muscle specimens; type: cell-based; conditions: 5×10^-7 g/ml
Procedure: Rat portal vein SMS samples were surgically isolated from random bred rats weighing 200-250 g. The suitability of each isolated rat portal vein SMS was established by measuring the spontaneous contraction response and its contractile response of the specimen to potassium chloride (KCl) as follows. Each isolated SMS was placed into an organ bath with standard Krebs-Henseleit (KH) solution at 35° C. Then, 0.5 ml of physiological saline were added into the organ bath. In this procedure, one end of the smooth muscle strip was fixed, while the other end of the muscle strip was connected with a probe which transmitted contraction-induced signals to an analog-to-digital converter. The spontaneous contraction curve for each SMS was recorded by taking repeated measurements over a 1-minute period. Next, 0.5 ml of a 600 mM solution of KCl in physiological saline was added to the SMS sample/organ bath to achieve a final concentration of 60 mM KCl. KCl induces contraction of rat portal vein tissue at a fmal tissue concentration of about 60 mM.
The KCl-induced contraction curve for each specimen sample was then recorded over the next 5-minute period. […] During this stabilization period, the spontaneous contraction curve for each SMS was verified by monitoring the data obtained from analog-to-digital converter.
To each SMS in the organ bath prepared according to Steps 2 and 3 above, 0.5 ml of physiological saline was added, and the spontaneous contraction curve was recorded for 1 minute. Each spontaneous contraction curve served as baseline (control) curve for comparison with the respective spontaneous contraction of each SMS in the presence of a test substance or reference substance.
Spontaneous contraction curve values for each SMS were recorded by making repetitive measurements of the spontaneous contractile activity of each sample at 2, 5, 10, and 15 minutes after the addition of the test or reference substance to each SMS/organ bath. Next, 0.5 ml of a solution of 600 mM solution of KCl in […] in the organ bath until a final concentration of 60 mM KCl was achieved. The contractile activity of each SMS was then measured for 5 minutes.

mice = assay: Chloroform-induced arrhythmia; type: in vivo; conditions: 240 mg/kg i.p. 15 min before chloroform
Procedure: Each mouse in the study was treated by intraperitoneal injection of a dose of a test or control substance 15 minutes prior to the administration of a deep chloroform anesthesia. A test or control substance was then administered to each mouse. […] Novocainamide, a known antiarrhythmic agent, served as the positive control substance and was administered to mice in the positive control group at a dose of 240 mg/kg. Physiological saline served as the negative control substance and was administered to the mice in the negative control group.
Chloroform anesthesia was administered to each mouse by placing the mouse in an airtight glass container with cotton wool soaked in 20 ml of absolute chloroform. At the moment of respiratory arrest, the mouse was removed from the jar and electrocardiogram (ECG) monitoring (standard lead II) was initiated and continued for 30 seconds. […] An antiarrhythmic activity for a particular dose of a test substance is pharmaceutically acceptable if 30% of the animals in a test group show the latter test results (i.e., namely, no sign of ventricular paroxysmal rhythm disturbances and heart rate below 100 beats per 30 seconds within 30 seconds following the respiratory arrest).

SMILES: CC(C)[C@H](N)C(=O)N[C@H](C(=O)O)[C@@H](C)O [VT, L-Valine-L-Threonine] (H-Val-Thr-OH)
- arrhythmogenic effect during reperfusion (ischemic myocardium): Neither GE nor VT was found to have an arrhythmogenic effect
- Duration of QT Interval (% of Initial Mean Value) (rats; 0.001 mg/kg i.v., 1 min): 101.80%
- Duration of QT Interval (% of Initial Mean Value) (rats; 0.001 mg/kg i.v., 3 min): 105.73%
- Duration of QT Interval (% of Initial Mean Value) (rats; 0.001 mg/kg i.v., 5 min): 102.20%
- Duration of QT Interval (% of Initial Mean Value) (rats; 0.001 mg/kg i.v., 10 min): 101.24%
- Duration of QT Interval (% of Initial Mean Value) (rats; 0.01 mg/kg i.v., 1 min): 99.86%
- Duration of QT Interval (% of Initial Mean Value) (rats; 0.01 mg/kg i.v., 3 min): 101.48%
- Duration of QT Interval (% of Initial Mean Value) (rats; 0.01 mg/kg i.v., 5 min): 101.09%
- Duration of QT Interval (% of Initial Mean Value) (rats; 0.01 mg/kg i.v., 10 min): 97.32%
- Duration of QT Interval (% of Initial Mean Value) (rats; 0.1 mg/kg i.v., 1 min): 102.97%
- Duration of QT Interval (% of Initial Mean Value) (rats; 0.1 mg/kg i.v., 3 min): 98.39%
- Duration of QT Interval (% of Initial Mean Value) (rats; 0.1 mg/kg i.v., 5 min): 95.65%
- Duration of QT Interval (% of Initial Mean Value) (rats; 0.1 mg/kg i.v., 10 min): 90.67%
- Duration of QT Interval (% of Initial Mean Value) (rats; 1.0 mg/kg i.v., 1 min): 105.57%
- Duration of QT Interval (% of Initial Mean Value) (rats; 1.0 mg/kg i.v., 3 min): 105.58%
- Duration of QT Interval (% of Initial Mean Value) (rats; 1.0 mg/kg i.v., 5 min): 102.18%
- Duration of QT Interval (% of Initial Mean Value) (rats; 1.0 mg/kg i.v., 10 min): 101.18%
- Duration of QT Interval (% of Initial Mean Value) (rats; 10.0 mg/kg i.v., 1 min): 94.89% and 102.97%
- Duration of QT Interval (% of Initial Mean Value) (rats; 10.0 mg/kg i.v., 3 min): 95.91% and 105.82%
- Duration of QT Interval (% of Initial Mean Value) (rats; 10.0 mg/kg i.v., 5 min): 96.52% and 103.51%
- Duration of QT Interval (% of Initial Mean Value) (rats; 10.0 mg/kg i.v., 10 min): 88.88% and 104.78%
- Duration of QT Interval (% of Initial Mean Value) (rats; 100.0 mg/kg i.v., 1 min): 100.00% and 96.62%
- Duration of QT Interval (% of Initial Mean Value) (rats; 100.0 mg/kg i.v., 3 min): 100.82% and 100.45%
- Duration of QT Interval (% of Initial Mean Value) (rats; 100.0 mg/kg i.v., 5 min): 97.96% and 99.74%
- Duration of QT Interval (% of Initial Mean Value) (rats; 100.0 mg/kg i.v., 10 min): 94.74% and 102.25%

SMILES: CN1[C@@H]2CC[C@H]1C[C@@H](OC(=O)C(CO)c1ccccc1)C2 (stereo partly shown) [Atropine, atropine]
- Contraction Amplitude, calcium-induced (% of control level) (Intestinal Smooth Muscle; Application I, 10^-7 g/ml): 39.57%
- Contraction Amplitude, calcium-induced (% of control level) (Intestinal Smooth Muscle; Application II, 10^-6 g/ml): 25.08%

SMILES: COc1ccc(CCN(C)CCCC(C#N)(c2ccc(OC)c(OC)c2)C(C)C)cc1OC (stereo not shown) [Verapamil, reference compound]
- Amplitude of spontaneous contraction (% of Control) ([1]; 2 min after application): 95.82%
- Area Under Curve of spontaneous contraction (% of Control) ([1]; 2 min after application): 82.41%
- Amplitude of spontaneous contraction (% of Control) ([1]; 5 min after application): 78.58%
- Area Under Curve of spontaneous contraction (% of Control) ([1]; 5 min after application): 62.11%
- Amplitude of spontaneous contraction (% of Control) ([1]; 10 min after application): 60.79%
- Area Under Curve of spontaneous contraction (% of Control) ([1]; 10 min after application): 49.83%
- Amplitude of spontaneous contraction (% of Control) ([1]; 15 min after application): 37.92%
- Area Under Curve of spontaneous contraction (% of Control) ([1]; 15 min after application): 35.13%

SMILES: CCN(CC)CCNC(=O)c1ccc(N)cc1 [Novocainamide, reference compound]
- Antiarrhythmic Effect (no. animals) % (mice): 77.8%
- Antiarrhythmic Effect (no. animals) abs (mice): 7
- Result (mice): Antiarrhythmic effect

SMILES: COc1ccc([C@@H]2Sc3ccccc3N(CCN(C)C)C(=O)[C@@H]2OC(C)=O)cc1 [Diltiazem, diltiazem]
- Contraction Amplitude, calcium-induced (% of control level) (Intestinal Smooth Muscle; Application I, 10^-9 g/ml): 39.02%
- Contraction Amplitude, calcium-induced (% of control level) (Intestinal Smooth Muscle; Application II, 10^-8 g/ml): 12.95%
